Test results: the C3SDB collision cross section collection
Where “and” joins values, the source holds several entries; their conditions need not be identical. Identical values can stand only once.

Tests used:
[1] = instrument: DT, single field, calibrated with ESI Low Concentration Tuning Mix (Agilent)
[2] = instrument: TW, calibrated with polyalanine and drug standards

| collision cross section (N2) ([2]; [M+H]+) [Å²] | SMILES | further results |
| --- | --- | --- |
| 155.8 | CCc1nc(N)nc(N)c1-c1ccc(Cl)cc1 [PYRIMETHAMINE] |  |
| 139.9 | COc1c2occc2cc2ccc(=O)oc12 [METHOXSALEN] |  |
| 169.3 | C[C@H](CCC(=O)O)[C@H]1CC[C@H]2[C@@H]3CC[C@@H]4CCCC[C@]4(C)[C@H]3CC[C@]12C [URSOCHOLANIC ACID] |  |
| 139 | CNC[C@H](O)[C@@H](O)[C@H](O)[C@H](O)CO [MEGLUMINE] |  |
| 157.5 | CC(C(=O)O)c1cccc(C(=O)c2ccccc2)c1 (stereo not drawn) [KETOPROFEN] |  |
| 130.6 | CCC(C)C(NC)C(=O)O (stereo not drawn) [N-METHYLISOLEUCINE] |  |
| 182 | COc1ccc(-c2cc(=O)c3c(OC)c(OC)c(OC)c(OC)c3o2)cc1 [TANGERITIN] |  |
| 163.4 | Nc1ccc(C(=O)Oc2ccccc2)c(O)c1 [PHENYL AMINOSALICYLATE] |  |
| 164.1 | COc1ccc(-c2coc3c(O)c(OC)ccc3c2=O)cc1 [RETUSIN 7-METHYL ETHER] |  |
| 209.7 | CCCCCc1c2c(cc(O)c1C(=O)O)OC(=O)c1c(cc(OC)cc1C(=O)CCCC)O2 [LOBARIC ACID] |  |
| 172.1 | O=C1OC(c2ccc(O)cc2)(c2ccc(O)cc2)c2ccccc21 [PHENOLPHTHALEIN] |  |

The remaining lines, values behind:

| SMILES | collision cross section (N2) ([2]; [M+H]+) [Å²] | further results |
| --- | --- | --- |
| C[C@@H]1NC(=O)N[C@@H]1CCCCCC(=O)O [DETHIOBIOTIN] |  | collision cross section (N2) ([1]; [M+H]+): 144 Å²; collision cross section (N2) ([1]; [M+K]+): 155.8 Å²; collision cross section (N2) ([1]; [M+Na-2H]-): 148.8 Å²; collision cross section (N2) ([1]; [M+Na]+): 155 Å²; collision cross section (N2) ([1]; [M-H]-): 152.5 Å² |
| NC(=O)NCCC(=O)O [UREIDOPROPIONATE] |  | collision cross section (N2) ([1]; [M+Na]+): 132.4 Å² |
| Nc1ncnc2c1ncn2[C@@H]1O[C@H](COP(=O)(O)OP(=O)(O)OP(=O)(O)O)[C@@H](O)[C@H]1O [ADENOSINE TRIPHOSPHATE] |  | collision cross section (N2) ([1]; [M+H]+): 196.6 Å² and 196.9 Å²; collision cross section (N2) ([1]; [M+Na-2H]-): 193.5 Å²; collision cross section (N2) ([1]; [M+Na]+): 204 Å² and 204.2 Å²; collision cross section (N2) ([1]; [M-H]-): 188.2 Å² and 188.3 Å² |
| COc1cc(C(O)C(=O)O)ccc1O (stereo not drawn) [3-METHOXY-4-HYDROXYMANDELATE] |  | collision cross section (N2) ([1]; [M-H]-): 143.5 Å² |
| O=C(O)Cc1c[nH]c2ccc(O)cc12 [5-HYDROXYINDOLEACETATE] |  | collision cross section (N2) ([1]; [M+H]+): 140.9 Å²; collision cross section (N2) ([1]; [M+Na]+): 148.4 Å²; collision cross section (N2) ([1]; [M-H]-): 137.1 Å² |
| NCCOP(=O)(O)OP(=O)(O)OC[C@H]1O[C@@H](n2ccc(N)nc2=O)[C@H](O)[C@@H]1O [CDP-ETHANOLAMINE] |  | collision cross section (N2) ([1]; [M+Na-2H]-): 186.1 Å²; collision cross section (N2) ([1]; [M-H]-): 188.2 Å² |
| O=C(O)C(O)Cc1ccc(O)cc1 (stereo not drawn) [HYDROXYPHENYLLACTATE] |  | collision cross section (N2) ([1]; [M+Na]+): 144.2 Å²; collision cross section (N2) ([1]; [M-H]-): 141.9 Å² |
| NC(=O)C1=CN([C@@H]2O[C@H](COP(=O)(O)OP(=O)(O)OC[C@H]3O[C@@H](n4cnc5c(N)ncnc54)[C@H](OP(=O)(O)O)[C@@H]3O)[C@@H](O)[C@H]2O)C=CC1 [NADPH] |  | collision cross section (N2) ([1]; [M+Na-H]+): 240.5 Å²; collision cross section (N2) ([1]; [M+]+): 232.2 Å²; collision cross section (N2) ([1]; [M-H]-): 246.7 Å² |
| O=C(O)C1=CC(=O)[C@@H](O)[C@H](O)C1 [3-DEHYDROSHIKIMATE] |  | collision cross section (N2) ([1]; [M+Na]+): 149.1 Å²; collision cross section (N2) ([1]; [M-H]-): 132 Å² |
| OC[C@H]1O[C@H](O[C@H]2O[C@H](CO)[C@@H](O)[C@H](O)[C@H]2O)[C@H](O)[C@@H](O)[C@@H]1O [TREHALOSE] |  | collision cross section (N2) ([1]; [M+K]+): 179.7 Å²; collision cross section (N2) ([1]; [M+Na]+): 175.7 Å²; collision cross section (N2) ([1]; [M-H]-): 169.9 Å² |
| CC(=O)NCCCNCCCCNCCCN [N1-ACETYLSPERMINE] |  | collision cross section (N2) ([1]; [M+H]+): 158 Å²; collision cross section (N2) ([1]; [M+Na]+): 162 Å² |
| CC[C@@H](C)C(=O)O[C@H]1[C@H](O)[C@H]2[C@@H](CN3C[C@@H](C)CC[C@H]3[C@@]2(C)O)[C@@H]2C[C@]34O[C@]5(O)[C@@H](OC(=O)[C@@](C)(O)CC)CC[C@@]3(C)[C@@H]5[C@@H](OC(C)=O)[C@@H](OC(C)=O)[C@H]4[C@@]21O [PROTOVERATRINE A] | 285.2 |  |
| CC(=O)c1ccc(S(=O)(=O)NC(=O)NC2CCCCC2)cc1 [ACETOHEXAMIDE] | 178.2 |  |
| O=C(N[C@H](CO)[C@H](O)c1ccc([N+](=O)[O-])cc1)C(Cl)Cl [CHLORAMPHENICOL] |  | collision cross section (N2) ([2]; [M+H-H2O]+): 163.9 Å² |
| CCc1cc(C(N)=S)ccn1 [ETHIONAMIDE] | 135.8 |  |
| C#CCCCCCCCCCCCC(O)CC(O)COC(C)=O (stereo not drawn) [AVOCADYNE ACETATE] |  | collision cross section (N2) ([2]; [M+Na]+): 184 Å² |
| COc1ccc(-c2cc(=O)c3c(OC(C)=O)cc(OC(C)=O)cc3o2)cc1 [ACACETIN DIACETATE] | 184.8 |  |
| CC(C)(O)CC[C@@H](O)[C@](C)(O)[C@H]1CC[C@@]2(O)C3=CC(=O)[C@@H]4C[C@@H](O)[C@@H](O)C[C@]4(C)[C@H]3CC[C@]12C [CRUSTECDYSONE] | 221.3 |  |

| SMILES | collision cross section (N2) ([2]; [M+H]+) [Å²] | further results |
| --- | --- | --- |
| O=C1CCc2ccc(OCCCCN3CCN(c4cccc(Cl)c4Cl)CC3)cc2N1 [ARIPIPRAZOLE] | 203.5 |  |
| O=c1ccc2ccccc2o1 [COUMARIN] | 122.2 |  |
| C[C@H](CCC(=O)O)[C@H]1CC[C@H]2[C@@H]3[C@H](O)C[C@@H]4C[C@H](O)CC[C@]4(C)[C@H]3C[C@H](O)[C@]12C [CHOLIC ACID] |  | collision cross section (N2) ([2]; [M+Na]+): 195.6 Å² |
| CCCC1O[C@@H]2C[C@H]3[C@@H]4CCC5=CC(=O)C=C[C@]5(C)[C@H]4[C@@H](O)C[C@]3(C)[C@]2(C(=O)CO)O1 (stereo partly drawn) [BUDESONIDE] | 204.6 |  |
| Oc1ccc(Cl)cc1 [PARACHLOROPHENOL] | 108.8 |  |
| CC(C)=CC1C(C(=O)O)C1(C)C (stereo not drawn) [CHRYSANTHEMIC ACID] | 130 |  |
| Nc1[nH]c(=O)ncc1F [FLUCYTOSINE] | 118.4 |  |
| O=C(O)c1cc(-c2ccccc2)nc2ccccc12 [CINCHOPHEN] | 154.3 |  |
| Oc1c(I)cc(Cl)c2cccnc12 [CLIOQUINOL] | 138.2 |  |
| CC(=O)OCC1(O)CC23CCC4c5ccoc5CCC4(C)C2CCC1C3 (stereo not drawn) [CAFESTOL ACETATE] | 169.3 |  |
| CN(C)Cc1c[nH]c2ccccc12 [GRAMINE] | 134.9 |  |
| Nc1ncnc2c1ncn2[C@@H]1O[C@H](COP(=O)(O)O)[C@@H](O)[C@H]1O [ADENOSINE PHOSPHATE] | 167.6 |  |
| CCOc1ccc2c(c1)C(C)=CC(C)(C)N2 [ETHOXYQUIN] | 152.6 |  |
| COC(=O)C[C@H]1C(C)(C)[C@H](OC(C)=O)[C@@H]2CC3=C4CC(=O)O[C@@H](c5ccoc5)[C@]4(C)CC[C@@H]3C1(C)C2=O [FISSINOLIDE] | 213.3 |  |
| COc1cc(O)c2c(=O)cc(C)oc2c1CC=C(C)C [HETEROPEUCENIN, METHYL ETHER] | 161.7 |  |
| CC(=O)Nc1ccc(S(=O)(=O)c2ccc(NC(C)=O)cc2)cc1 [ACEDAPSONE] | 171.2 |  |
| COc1ccc(C(=O)c2ccccc2O)c(O)c1 [DIOXYBENZONE] | 150 |  |
